Earlier results in US20050080043A1, “Self-preserved antibacterial nasal, inhalable, and topical ophthalmic preparations and medications” (priority 2000, published 2005).
Read-outs that look alike come from different tables or passages of the source.

Q: Which “stability of drug solution” value (pH 5.0) does the source give for `CC[C@@H]1C(=O)OC[C@@H]1Cc1cncn1C` [pilocarpine] here?
A: very stable

Q: What about the “stability of drug solution” value (pH 6.8) of the same compound?
A: relatively unstable
